Test results taken from paper PMC2729980 (Planta, 2009).

Target: T1, DkFGT (GST-DkFGT) (Diospyros kaki, UniProt C8KH59)
T1 sequence (C8KH59 1-459): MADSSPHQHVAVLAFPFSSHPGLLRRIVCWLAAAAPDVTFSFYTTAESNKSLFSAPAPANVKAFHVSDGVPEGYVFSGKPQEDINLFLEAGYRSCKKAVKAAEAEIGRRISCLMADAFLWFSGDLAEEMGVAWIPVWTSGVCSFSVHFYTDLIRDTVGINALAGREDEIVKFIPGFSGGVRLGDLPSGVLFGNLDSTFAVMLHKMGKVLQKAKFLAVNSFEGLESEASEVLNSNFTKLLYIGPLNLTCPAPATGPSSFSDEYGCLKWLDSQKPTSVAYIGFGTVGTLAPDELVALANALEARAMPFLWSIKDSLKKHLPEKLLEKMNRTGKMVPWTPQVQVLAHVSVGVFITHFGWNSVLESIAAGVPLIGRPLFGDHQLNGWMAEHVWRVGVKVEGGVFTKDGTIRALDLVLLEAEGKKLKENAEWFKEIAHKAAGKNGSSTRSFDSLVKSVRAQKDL
Experiment: biochemical

SMILES | Km [µM]
O=c1c(O)c(-c2ccc(O)cc2)oc2cc(O)cc(O)c12 [kaempferol] | 143
Oc1ccc(-c2[o+]c3cc(O)cc(O)c3cc2O)cc1 [pelargonidin] | 186
